The results in this text go back to US8927580B2, “Thiosemicarbazone compounds and use in the treatment of cancer” (Oncochel Therapeutics LLC, priority 2010, dated 2015).

pIC50: −log10 of the molar value.

As a reminder, the pIC50 is the negative decadic logarithm of the IC50, by convention in mol/L. A lower pIC50 goes with a large IC50.

Data set [1] relates to SK-N-MC neuroepithelioma cells. Description: Iron efflux assay (59Fe release from pre-labeled cells). The class given is cell-based, human. The note with it: 25 μM chelator, 3 h at 37° C. On the procedure: The culture dishes were then placed on ice, the supernatant containing excess ^59Fe-Tf was aspirated and the cells washed 4 times with ice-cold PBS. […] After 3 h the culture dishes were again placed on ice, the media was collected in counting tubes and this provided a measurement of released ^59Fe. Ice-cold PBS (1 mL) was added to plates containing cells and cells were scraped from the plastic surface using a Teflon spatula and also collected in counting tubes. These tubes represent the intracellular ^59Fe content. Results are expressed as total ^59Fe released as a percentage of total ^59Fe present. Radioactivity was measured using a Wallac Wizard 3″ Gamma Counter (PerkinElmer, MA, USA).

Data set [2] in a line: PANC 1 xenograft study: body and organ weights, haematology, histopathology.
In another data set the test system is metmyoglobin (metMb). Description: metMb formation in vivo. On the set-up: species or system C57BL6 mice. The note with it: 6 mg/kg intravenously, 30 min post-administration, heart. On the procedure: FIG. 14. Effect of thiosemicarbazone chelators on metMb-formation in vivo. MetMb levels after Dp44mT Triapine® or Dp4cycH4mT treatment in vivo at a dose of 6 mg/kg administered intravenously via the tail vein. Mice in the control group were treated with vehicle alone. At 30 min post-administration, whole hearts were collected for determination of metMb levels.
Mouse heart tissue was exhaustively perfused with ice-cold HBSS to remove blood and homogenized in ice-cold HBSS containing protease inhibitor cocktail (Roche, Basel, Switzerland). Heart homogenates were centrifuged (16,000×xg/45 min/4° C.) and the supernatant ([oxyMb]=50 μM) used immediately.
The levels of metHb and metMb in RBC lysates were determined using a Shimadzu UV-Vis spectrophotometer (UV-1800; Shimadzu Corporation, Kyoto, Japan) at 577 nm and 630 nm for metHb and metMb in accordance with published methods (Winterbourn CC and Carrell R W (1977). Biochem J 165: 141-148).
C57BL6 mice (7-8 weeks-old) were used under a protocol approved by the university of Sydney Animal Ethics Committee. Dp44mT, Triapine® or Dp4cycH4mT (all at 6 mg/kg) were dissolved in 30% propylene glycol/saline and administered iv via the tail vein. Subsequently, 30 min after administration, mice were anesthetized with isoflurane and blood samples obtained by cardiac puncture. Blood samples were lysed with 2.5 volumes of ultrapure water for metHb estimation. Mice were sacrificed with isoflurane, the heart exhaustively perfused with HBSS and Mb isolated.

Data set [3] has as its system SK-N-MC neuroepithelioma cell line. Description: MTT anti-proliferative assay in SK-N-MC cells. The class given is cell-based, human. As to conditions: Homo sapiens, 72 h at 37° C., mean±SD (3 experiments). On the procedure:
The cells were maintained in minimum essential media (MEM; Invitrogen, CA, USA) which contained 10% fetal calf serum (FCS; JRH Biosciences, Kansas, USA), 1% non-essential amino acids (Gibco, Victoria, Australia), 1% penicillin/streptomycin/glutamine (Gibco, VIC, Australia) and fungizone ([…]; Squibb Pharmaceuticals, Montreal, Canada).
The ability of the compounds to inhibit cellular proliferation was assessed initially in SK-N-MC cells by the MTT assay.
Table 1. […] Cells were seed and allowed to attach to wells for 24 h and then incubated for 72 h at 37° C. with control medium or the chelators.

On to `CN(C(=S)NN=C(c1ccccn1)c1ccccn1)C1CCCCC1` [Dp4cycH4mT, di-2-pyridylketone 4-cyclohexyl-4-methyl-3-thiosemicarbazone], for which, in data set [1], the “cellular 59Fe mobilised (59Fe released as percentage of total 59Fe)” value turned out to be 22%. Also, in data set [2] (Dp4cycH4mT 5 mg/kg/day), the HCT came out at 0.41 ± 0.01, the Hb came out at 131.88 ± 4.31 g/L, the Platelets is given as 1283 ± 160 10^9/L and the RBC is on record as 9.46 ± 0.31 × 10^12/L. Moreover, in data set [2] (Dp4cycH4mT 5 mg/kg/day), the Reticulocytes is 0.77 ± 0.08 × 10^12/L and the WBC is reported as 3.5 ± 0.34 × 10^9/L. Besides, in data set [2] (Dp4cycH4mT 5 mg/kg/day i.v.), the “Body weight loss (% initial weight)” value is 88.0 ± 6.5 % initial weight, the Brain weight was 0.30 ± 0.01 g, the Heart weight amounted to 0.09 ± 0.01 g and the Kidney weight was 0.17 ± 0.02 g. Further, in data set [2] (Dp4cycH4mT 5 mg/kg/day i.v.), the Liver weight was 0.80 ± 0.03 g and the Spleen weight is on record as 0.08 ± 0.01 g. Moreover, the “levels of metMb” value in the data set with metmyoglobin (metMb) turned out to be 31.7±3.2%. The pIC50 in data set [3] was 7.89.
